Test results taken from patent EP0187355A1, “Process for preparing beta-lactam antibiotics” (E.R. Squibb & Sons, Inc., priority 1981, dated 1982).
Where a name gives a salt, the structure may show the parent alone.

Tests used:
Assay in all cases: MIC, agar dilution
Type in all cases: cell-based
[1] = system: Acinetobacter calcoaceticus, 8333; settings: Acinetobacter calcoaceticus, 8333, 18 h, K-10 agar, 10^4 CFU, 37°C, read-out: M.I.C.
Description: (§1) The following methodology is used to determine the minimum inhibitory concentration (hereinafter referred to as MIC) of the […] of this invention.
(§2) The test organisms are grown in approximately 15-20 ml of Antibiotic Assay broth (Difco) by inoculating (in tubes) the broth with a loopful of the organism from a BHI (Difco) agar slant. The inoculated tubes are incubated at 37°C for 18 to 20 hours. These cultures are assumed to contain 10^9 colony forming units (hereinafter CFU) per milliliter. The cultures are diluted 1:100 to give a final inoculum level of 10^4 CFU; dilutions are made with K-10 broth^*.
(§3) The compounds are dissolved in the appropriate diluent at a concentration of 1000 µg/ml. Twofold dilutions are made in K-10 broth resulting in a range from 1000 µg/ml to 0.5 µg/ml. 1.5 ml of each dilution is placed into individual square petri dishes to which 13.5 ml of K-10 agar^** is added. The final drug concentration in the agar ranges from 100 µg/ml to 0.05 µg/ml. Organism growth control plates containing agar only are prepared and inoculated before and after the test plates. The organisms are applied to the agar surface of each plate with the Denley Multipoint Inoculator (which delivers approximately 0.001 ml of each organism) resulting in a final inoculum level of 10^4 CFU on the agar surface.
(§4) The plates are incubated at 37 °C for 18 hours and the MIC's are determined. The MIC is the lowest concentration of compound inhibiting growth of the organism.
(§5) The tables that follow are tabulated results obtained when the B-lactams of this invention are tested against various organisms. The number following each organism refers to the number of the organism in the collection of E. R. Squibb & Sons,.Inc., Princeton, New Jersey. […] The symbol "N.T." means not tested.

[2] = system: Citrobacter freundii, 9518; settings: K-10 agar, 10^4 CFU, 37°C, 18 hours, read-out: M.I.C.
Description: as §1, §2, §3, §4, §5

[3] = system: Enterobacter aerogenes, 10078; settings: Klebsiella aerogenes, 10078, 18 h, Enterobacter aerogenes, 10078; K-10 agar, 10^4 CFU, 37°C, 18 hours; read-out: M.I.C.
Description: as §1, §2, §3, §4, §5

[4] = system: Escherichia coli, 10857; settings: Escherichia coli, 10857, 18 h, K-10 agar, 10^4 CFU, 37°C
Description: as §1, §2, §3, §4, §5

[5] = system: Escherichia coli, 10896; settings: K-10 agar, 10^4 CFU, 37°C, 18 hours
Description: as §1, §2, §3, §4, §5

[6] = system: Escherichia coli, 10909; settings: K-10 agar, 10^4 CFU, 37°C, 18 hours
Description: as §1, §2, §3, §4, §5

[7] = system: Escherichia coli, 8294; settings: Escherichia coli, 8294, 18 h, K-10 agar, 10^4 CFU, 37°C
Description: as §1, §2, §3, §4, §5

[8] = system: Klebsiella aerogenes, 10440; settings: K-10 agar, 10^4 CFU, 37°C, 18 hours, read-out: M.I.C.
Description: as §1, §2, §3, §4, §5

[9] = system: Klebsiella pneumoniae, 9527; settings: Klebsiella pneumoniae, 9527, 18 h, K-10 agar, 10^4 CFU, 37°C, read-out: M.I.C.
Description: as §1, §2, §3, §4, §5

[10] = system: Proteus mirabilis, 3855; settings: Proteus mirabilis, 3855, 18 h, K-10 agar, 10^4 CFU, 37°C, read-out: M.I.C.
Description: as §1, §2, §3, §4, §5

[11] = system: Proteus rettgeri, 8479; settings: Providencia rettgeri, K-10 agar, 10^4 CFU, 37°C, 18 hours, read-out: M.I.C.
Description: as §1, §2, §3, §4, §5

[12] = system: Proteus vulgaris, 9416; settings: K-10 agar, 10^4 CFU, 37°C, 18 hours, read-out: M.I.C.
Description: as §1, §2, §3, §4, §5

[13] = system: Pseudomonas aeruginosa, 8329; settings: K-10 agar, 10^4 CFU, 37°C, 18 hours, read-out: M.I.C.
Description: as §1, §2, §3, §4, §5

[14] = system: Pseudomonas aeruginosa, 9545; settings: Pseudomonas aeruginosa, 9545, 18 h, K-10 agar, 10^4 CFU, 37°C, read-out: M.I.C.
Description: as §1, §2, §3, §4, §5

[15] = system: Salmonella typhosa, 1195; settings: Salmonella enterica, TYPHOSA, 18 h, K-10 agar, 10^4 CFU, 37°C
Description: as §1, §2, §3, §4, §5

[16] = system: Serratia marcescens, 9783; settings: Serratia marcescens, 9783, 18 h, K-10 agar, 10^4 CFU, 37°C, read-out: M.I.C.
Description: as §1, §2, §3, §4, §5

[17] = system: Shigella sonnei, 8449; settings: Shigella sonnei, 8449, 18 h, K-10 agar, 10^4 CFU, 37°C
Description: as §1, §2, §3, §4, §5

[18] = system: Staphylococcus aureus, 10165; settings: Staphylococcus aureus, 10165; K-10 agar, 10^4 CFU, 37°C, 18 hours; read-out: M.I.C.
Description: as §1, §2, §3, §4, §5

[19] = system: Staphylococcus aureus, 1276; settings: Staphylococcus aureus, 1276; K-10 agar, 10^4 CFU, 37°C, 18 hours; read-out: M.I.C.
Description: as §1, §2, §3, §4, §5

[20] = system: Staphylococcus aureus, 2399; settings: Staphylococcus aureus, 2399, 18 h, Staphylococcus aureus, 2399; K-10 agar, 10^4 CFU, 37°C, 18 hours; read-out: M.I.C.
Description: as §1, §2, §3, §4, §5

[21] = system: Staphylococcus aureus, 2400; settings: Staphylococcus aureus, 2400; K-10 agar, 10^4 CFU, 37°C, 18 hours; read-out: M.I.C.
Description: as §1, §2, §3, §4, §5

[22] = system: Streptococcus faecalis, 9011; settings: Enterococcus faecalis; Streptococcus faecalis, 9011; K-10 agar, 10^4 CFU, 37°C, 18 hours; read-out: M.I.C.
Description: as §1, §2, §3, §4, §5

[23] = system: Enterobacter cloacae, 8236; settings: Enterobacter cloacae, 8236, 18 h, K-10 agar, 10^4 CFU, 37°C
Description: as §1, §2, §3
(§6) The MIC is the lowest concentration of compound inhibiting growth of the organism.
(§7) The number following each organism refers to the number of the organism in the collection of E. R. Squibb & Sons,.Inc., Princeton, New Jersey. […] The symbol "N.T." means not tested.

[24] = system: Micrococcus luteus, 2495; settings: Micrococcus luteus, 2495, 18 h, K-10 agar, 10^4 CFU, 37°C, read-out: M.I.C.
Description: as §1, §2, §3, §6, §7

[25] = system: Streptococcus agalactiae, 9287; settings: Streptococcus agalactiae, 9287, 18 h, K-10 agar, 10^4 CFU, 37°C, read-out: M.I.C.
Description: as §1, §2, §3, §6, §7

## CC1C(NC(=O)OCc2ccccc2)C(=O)N1S(=O)(=O)O (racemic) [Example 1, (±―cis)-4-Methyl-2-oxo-3-[[(phenylmethoxy)carbonyl]-amino]-1-azetidinesulfonic acid, potassium salt]
[1]
  MIC: > 100 µg/mL
[2]
  MIC: > 100 µg/mL
[3]
  MIC: > 100 µg/mL
[4]
  MIC: > 100 µg/mL
[5]
  MIC: > 100 µg/mL
[6]
  MIC: > 100 µg/mL
[7]
  MIC: > 100 µg/mL
[8]
  MIC: > 100 µg/mL
[9]
  MIC: > 100 µg/mL
[10]
  MIC: > 100 µg/mL
[11]
  MIC: > 100 µg/mL
[12]
  MIC: > 100 µg/mL
[13]
  MIC: > 100 µg/mL
[14]
  MIC: > 100 µg/mL
[15]
  MIC: > 100 µg/mL
[16]
  MIC: > 100 µg/mL
[17]
  MIC: > 100 µg/mL
[18]
  MIC: 100 µg/mL
[19]
  MIC: 100 µg/mL
[20]
  MIC: 50 µg/mL
[21]
  MIC: 50 µg/mL
[22]
  MIC: > 100 µg/mL
[23]
  MIC: > 100 µg/mL
[24]
  MIC: > 100 µg/mL
[25]
  MIC: 100 µg/mL

## CC1C(NC(=O)Cc2ccccc2)C(=O)N1S(=O)(=O)O (racemic) [Example 4, (cis)-4-Methyl-2-oxo-3-[(phenylacetyl)amino]-1-azetidinesulfonic acid, potassium salt]
[1]
  MIC: > 100 µg/mL
[2]
  MIC: > 100 µg/mL
[3]
  MIC: > 100 µg/mL
[4]
  MIC: 50 µg/mL
[5]
  MIC: 100 µg/mL
[6]
  MIC: 50 µg/mL
[7]
  MIC: 100 µg/mL
[8]
  MIC: > 100 µg/mL
[9]
  MIC: 100 µg/mL
[10]
  MIC: > 100 µg/mL
[11]
  MIC: 100 µg/mL
[12]
  MIC: > 100 µg/mL
[13]
  MIC: > 100 µg/mL
[14]
  MIC: > 100 µg/mL
[15]
  MIC: 100 µg/mL
[16]
  MIC: > 100 µg/mL
[17]
  MIC: 100 µg/mL
[18]
  MIC: 100 µg/mL
[19]
  MIC: 25 µg/mL
[20]
  MIC: 25 µg/mL
[21]
  MIC: 50 µg/mL
[22]
  MIC: > 100 µg/mL
[23]
  MIC: > 100 µg/mL
[24]
  MIC: 50 µg/mL
[25]
  MIC: 12.5 µg/mL

## CON=C(C(=O)NC1C(=O)N(S(=O)(=O)O)C1C)c1csc(N)n1 (racemic) [Example 7, [3α(Z),4α]-3-[[(2-Amino-4-thiazolyl) (methoxy-imino)acetyl]amino]-4-methyl-2-oxo-l-azetidinesulfonic acid, potassium salt]
[1]
  MIC: 50 µg/mL
[2]
  MIC: 0.2 µg/mL
[3]
  MIC: 0.4 µg/mL
[4]
  MIC: < 0.05 µg/mL
[5]
  MIC: 0.2 µg/mL
[6]
  MIC: 0.1 µg/mL
[7]
  MIC: 0.2 µg/mL
[8]
  MIC: 0.4 µg/mL
[9]
  MIC: 0.1 µg/mL
[10]
  MIC: < 0.05 µg/mL
[11]
  MIC: < 0.05 µg/mL
[12]
  MIC: < 0.05 µg/mL
[13]
  MIC: > 100 µg/mL
[14]
  MIC: 0.8 µg/mL
[15]
  MIC: < 0.05 µg/mL
[16]
  MIC: 0.4 µg/mL
[17]
  MIC: 0.2 µg/mL
[18]
  MIC: > 100 µg/mL
[19]
  MIC: 100 µg/mL
[20]
  MIC: 100 µg/mL
[21]
  MIC: 50 µg/mL
[22]
  MIC: > 100 µg/mL
[23]
  MIC: 0.2 µg/mL
[24]
  MIC: 6.3 µg/mL
[25]
  MIC: 3.1 µg/mL
